The assay concerns murine neural precursor cells (neurosphere cultures). As to the kind of experiment: HTS of LOPAC library against secondary neurosphere cultures, MTT proliferation assay at 3 μM, day 7 (z score, P value). In kind it is cell-based, mouse. (In general: Formazan colour is commonly taken as a measure of viable cells.)
Setting [1] is: LOPAC library screen, 3 μM, MTT, neurosphere cultures.
[2] abbreviates: LOPAC primary screen, neurosphere MTT proliferation, 3 μM, day 7.
Where [3] appears, read: yes = significantly inhibited neurosphere proliferation (P<0.01) in the primary screen.
Setting [4] is: yes/no: significantly inhibited neurosphere proliferation (P<0.01) in primary screen.
[5] abbreviates: LOPAC library screen, 3 μM, MTT, secondary neurosphere cultures, day 7.
[6] abbreviates: primary LOPAC screen, 3 μM, MTT, neurosphere proliferation.
Where [7] appears, read: yes/no: significantly inhibited neurosphere proliferation in the primary screen.
Setting [8] is: LOPAC screen, neurosphere MTT proliferation, 3 μM, day 7.
The mark [9] stands for this setting: LOPAC library screen at 3 μM, secondary neurosphere cultures, MTT.
[10] abbreviates: yes/no: significantly inhibited neurosphere proliferation (P<0.01) in the primary screen.
The mark [11] stands for this setting: yes/no: significantly inhibited neurosphere proliferation in primary screen.

Where a name gives a salt, the structure may show the parent alone. Read-outs that look alike come from different tables or passages of the source.

On to `NCCCCCC(=O)O` [6-Aminohexanoic acid], for which the Activity entry is “no”, the “Z Score” value was −2.179 and the Z score is listed as −2.179.

On to `N=C(N)NCCCCN.O=S(=O)(O)O` [Agmatine sulfate], for which the “Z Score” value under setting [1] was determined as 0.5881. This compound also returned a Z score under setting [2] of 0.588. Further, the Activity result under setting [3] was “no”.

Regarding `CCCCOC(=O)NS(=O)(=O)c1sc(CC(C)C)cc1-c1ccc(Cn2c(CC)nc3c(C)cc(C)nc32)cc1` [L-162,313], the “Z Score” value amounted to 0.7923. The same compound registered a Z score under setting [2] of 0.792. Further, under setting [4], the Activity entry is “no”.

With `N[C@H](CCCCCP(=O)(O)O)C(=O)O` [D(−)-2-Amino-7-phosphonoheptanoic acid], the Activity entry is “no”, the “Z Score” value is on record as 0.9855 and the Z score is 0.985.

Regarding `O=C1c2c(O)ccc(O)c2C(=O)c2c(NCCNCCO)ccc(NCCNCCO)c21` [Mitoxantrone], the “Z Score” value under setting [5] was −10.21. Besides, the Z score under setting [2] is recorded as −10.205. The Activity entry under setting [3] was “yes”.

Turning to `N=C(N)NC(=O)c1nc(Cl)c(N2CCCCCC2)nc1N` [5-(N,N-hexamethylene)amiloride], the “Z Score” value under setting [1] is given as 0.03855. The same compound returned a Z score under setting [6] of 0.039. Besides, the Activity result under setting [7] is “no”.

As to `Cn1cc(C2=C(c3ccc(Cl)cc3Cl)C(=O)NC2=O)c2ccccc21` [SB 216763], the “Z Score” value is reported as −2.542. The Z score under setting [2] is recorded as −2.542. Also, the Activity entry under setting [3] is given as “yes”.

For `O=C(O)/C=C1\CCCc2ccccc2C1O` (stereo not shown) [NCS-382], the “Z Score” value is on record as −1.733. Moreover, under setting [2], the Z score is listed as −1.733. In addition, under setting [3], the Activity result is “no”.

Turning to `CC(C)NCC(O)COc1ccc(CCOCC2CC2)cc1` (stereo not shown) [Betaxolol hydrochloride], the “Z Score” value under setting [1] was found to be 0.9838. Besides, the Z score under setting [8] worked out at 0.984. Further, the Activity result under setting [4] is on record as “no”.

As for `CN(C)c1nc(N)c(C(=O)NC(=N)N)nc1Cl.Cl` [5-(N,N-Dimethyl)amiloride hydrochloride], the “Z Score” value turned out to be 2.396. The compound also had a Z score under setting [6] of 2.396. Further, the Activity entry under setting [7] is recorded as “no”.

For `O=C(O)/C=C\C(=O)O.O=C(O)/C=C\C(=O)O.c1cc(CN2CCCCC2)cc(OCCCNc2nc3ccccc3s2)c1` [SKF 95282 dimaleate], the Z score under setting [6] is listed as 0.424. Under setting [7], the Activity entry was “no”.

On to `CCNC(=O)[C@H]1O[C@@H](n2cnc3c(NCc4ccccc4)ncnc32)[C@H](O)[C@@H]1O` [N6-Benzyl-5′-N-ethylcarboxamidoadenosine], for which, under setting [9], the “Z Score” value is given as −0.7976. Under setting [8], this compound displayed a Z score of −0.798. For the same compound, the Activity entry under setting [4] was “no”.

Consider `CN1CCc2cc3c(cc2[C@H]1[C@@H]1OC(=O)c2c1ccc1c2OCO1)OCO3` [(+)-Bicuculline], for which the “Z Score” value was −0.1989. For the same compound, the Z score under setting [2] was −0.199. Further, under setting [10], the Activity result is “no”.

`CNC[C@H](O)c1cccc(O)c1` [Phenylephrine hydrochloride]: the Activity result is “no”. Besides, the “Z Score” value under setting [5] was −1.257. This compound also returned a Z score under setting [2] of −1.257.

Take `COc1cc(C(O)CO)ccc1OS(=O)(=O)[O-].[K+]` (stereo not shown) [MHPG sulfate potassium]: the “Z Score” value is reported as −0.5556. Under setting [2], the Z score is reported as −0.556. Also, the Activity entry under setting [4] is listed as “no”.

In the case of `Cc1nc2n(c(=O)c1CCN1CCC(c3noc4cc(F)ccc34)CC1)CCCC2` [Risperidone], the “Z Score” value is 1.694. In addition, the Z score under setting [2] is listed as 1.694. The Activity entry under setting [11] was “no”.

For the compound `CC(C)[C@H](CO)Nc1nc(Nc2cccc(Cl)c2)c2ncn(C(C)C)c2n1` [Purvalanol A], the “Z Score” value under setting [5] is −11.23. For the same compound, the Z score under setting [2] is −11.234. Under setting [10], the Activity entry is on record as “yes”.

In the case of `Nc1nc2c(ncn2COCCO)c(=O)[nH]1` [Acyclovir], under setting [9], the “Z Score” value was −1.215. Also, the Z score under setting [2] is listed as −1.215. In addition, the Activity entry under setting [10] is recorded as “no”.

For `CC1=C(CC(=O)O)c2cc(F)ccc2/C1=C\c1ccc([S+](C)[O-])cc1` (stereo not shown) [Sulindac], the Activity result is given as “no”. Besides, under setting [9], the “Z Score” value was −0.1942. The compound also registered a Z score under setting [2] of −0.194.

The compound `O=C(O)C1CN(CCCP(=O)(O)O)CCN1` (racemic) [(±)-CPP] displayed a Z score under setting [8] of 0.321. The Activity entry under setting [4] was “no”.

Turning to `C[C@H](O)C(=O)C1=Nc2c(nc(N)[nH]c2=O)NC1` [Sepiapterin], for the setting “168 h, 3 µM”, the “Z Score” value amounted to 1.795 and the Z score was 1.795. Also, the Activity result under setting [7] was “no”.

As for `O=C(O)CNC(=O)C(CS)Cc1ccccc1` (racemic) [DL-Thiorphan], the “Z Score” value under setting [9] is recorded as −0.3116. Besides, the Z score under setting [2] was −0.312. Besides, the Activity result under setting [11] is “no”.

For the compound `COc1ccccc1N1CCN(CCCCNC(=O)c2ccc3ccccc3c2)CC1` [BP 897], where the note is “168 h, 3 µM”, the “Z Score” value is listed as −1.715 and the Z score is −1.715. In addition, under setting [4], the Activity result is recorded as “no”.

Take `Cl.Oc1cc2c(cc1O)C(c1ccccc1)CNCC2` (stereo not shown) [(B1)-SKF-38393 hydrochloride]: the “Z Score” value is given as 1.28.

Regarding `Oc1ccc2c3c1O[C@H]1c4[nH]c5ccccc5c4C[C@@]4(O)[C@@H](C2)N(CC2CC2)CC[C@]314` [Naltrindole hydrochloride], the “Z Score” value is reported as −0.314. Under setting [2], this compound returned a Z score of −0.314. Also, the Activity entry under setting [3] was “no”.

Take `Nc1nc(OCc2ccccc2)c2nc[nH]c2n1` [O6-benzylguanine]: under setting [9], the “Z Score” value is reported as −1.177. Under setting [6], this compound registered a Z score of −1.177. For the same compound, under setting [7], the Activity result was “no”.

As for `NCCCC(=O)O` [GABA], the “Z Score” value is −0.4389. Under setting [6], this compound displayed a Z score of −0.439. In addition, the Activity result under setting [7] is listed as “no”.

Take `Cc1nc2sccn2c(=O)c1CCN1CCC(=C(c2ccccc2)c2ccc(F)cc2)CC1` [Diacylglycerol kinase inhibitor I]: the “Z Score” value is on record as −1.782. The Z score under setting [8] is given as −1.782. The Activity entry under setting [4] is “no”.

For `CC(C)=CCCC(C)=CCCC(C)=CCSc1ccccc1C(=O)O` [Farnesylthiosalicylic acid], the “Z Score” value under setting [1] is reported as 0.9061. For the same compound, the Z score under setting [2] turned out to be 0.906. Moreover, the Activity result under setting [4] is “no”.

For `COC(=O)C(N)Cc1ccc(Cl)cc1.Cl` (racemic) [DL-p-Chlorophenylalanine methyl ester hydrochloride], the “Z Score” value is 0.1276. In addition, under setting [8], the Z score is on record as 0.128. Besides, the Activity entry under setting [4] is “no”.

Regarding `CCCn1c(=O)c2[nH]c(-c3ccc(OCC(=O)Nc4ccc(C#N)cc4)cc3)nc2n(CCC)c1=O` [MRS 1754], the “Z Score” value came to 0.9268. Also, the Z score under setting [2] was found to be 0.927. Moreover, the Activity entry under setting [3] is reported as “no”.

As for `Cc1c2ccncc2c(C)c2c1[nH]c1ccccc12` [Ellipiticine], the Z score under setting [2] is given as −8.321. Besides, the Activity entry under setting [3] was “yes”.

Compound trans-(±)-ACPD gave a Z score under setting [6] of 0.315. Under setting [7], the Activity entry is “no”.

Take `COCCOC(=O)C1=C(C)NC(C)=C(C(=O)OC(C)C)C1c1cccc([N+](=O)[O-])c1` (stereo not shown) [Nimodipine]: under setting [9], the “Z Score” value is −0.8542. Further, the Z score under setting [2] is on record as −0.854.

Regarding `Cl.NCCc1ccc(S(=O)(=O)F)cc1` [4-(2-Aminoethyl)benzenesulfonyl fluoride hydrochloride], the “Z Score” value stood at 0.3634. Under setting [6], this compound came in with a Z score of 0.363. Further, under setting [7], the Activity result is on record as “no”.

`O=C(O)[C@H]1C[C@H](C(=O)O)N1` (relative stereo) [trans-Azetidine-2,4-dicarboxylic acid]: for the setting “168 h, 3 µM”, the “Z Score” value is −0.3491 and the Z score is given as −0.349. Moreover, under setting [7], the Activity result is recorded as “no”.

`C=CCN1CC[C@]23c4c5ccc(O)c4O[C@H]2/C(=N/NC(=O)c2ccccc2)CC[C@@]3(O)[C@H]1C5` [Naloxone benzoylhydrazone]: the “Z Score” value is reported as 1.915. The compound further returned a Z score under setting [2] of 1.915. Also, under setting [10], the Activity entry was “no”.

In the case of `CCN(CC)CC.Nc1ncnc2c1ncn2C1OC2COP(O)(=S)O[C@@H]2[C@@H]1O` (stereo partly shown) [Rp-cAMPS triethylamine], the Activity entry is reported as “no”, the “Z Score” value is given as 1.186 and the Z score is listed as 1.186.

For `COc1cc(OC)c(C=C2C(O)=Nc3ccccc32)c(OC)c1` [IC 261], the “Z Score” value was −1.63. The Z score under setting [2] is given as −1.630. In addition, under setting [11], the Activity result is listed as “no”.

Consider `O=C(CCNNC(=O)c1ccncc1)NCc1ccccc1` [Nialamide], for which the “Z Score” value under setting [1] is −0.02937. Besides, the Z score under setting [2] was −0.029. In addition, under setting [3], the Activity entry is reported as “no”.

Take `CCCCCC(O)CCCC(=O)O.[Na]` (stereo not shown) [5-hydroxydecanoic acid sodium]: where the note is “168 h, 3 µM”, the “Z Score” value stood at 0.2332 and the Z score came out at 0.233. The Activity entry under setting [4] is recorded as “no”.

Take `O=C1N=c2cc(Cl)c(Cl)cc2=NC1=O` [6,7-Dichloroquinoxaline-2,3-dione]: the “Z Score” value under setting [1] was 0.1274. Under setting [8], this compound showed a Z score of 0.127. Besides, the Activity entry under setting [4] is given as “no”.

Compound `CCCCCCCC/C=C\CCCCCCCC(=O)O` [Oleic acid] came in with a Z score under setting [2] of −0.345. In addition, the Activity entry under setting [10] is reported as “no”.

In the case of `COc1ccc2c(c1)c(CC(=O)O)c(C)n2C(=O)c1ccccc1` [1-benzoyl-5-methoxy-2-methylindole-3-acetic acid], under setting [9], the “Z Score” value is −0.955. In addition, under setting [6], the Z score was −0.955. Under setting [7], the Activity entry is on record as “no”.

Take `CN(C)C(=O)N=NC(=O)N(C)C` [N,N,N′,N′-Tetramethylazodicarboxamide]: where the note is “168 h, 3 µM”, the “Z Score” value was −0.6393 and the Z score was −0.639. Further, the Activity result under setting [4] is on record as “no”.
